Data reported in US20030064912A1, “Pharmaceutical compositions and methods of inhibiting angiogenesis using NAALADase inhibitors” (priority 1998, published 2003).

Key:
[1] = molecular target: NAALADase (Homo sapiens, UniProt Q04609); assay: In vitro inhibition of NAALADase activity; assay type: biochemical; settings: for Ki: in vitro inhibition of NAALADase activity; for NAALADase inhibiting activity (in words): qualitative, compared with 2-(phosphonomethyl)pentanedioic acid
Procedure: Various compounds of the present invention were tested for in vitro inhibition of NAALADase activity.

[2] = system: mice; assay: In vivo toxicity of NAALADase inhibitors in mice; settings: for Survival Rate After 5 days (%): observed 5 consecutive days
Text: The mice were subsequently observed two times per day for 5 consecutive days. The survival rate at each dose level is provided below in TABLE II.

[3] = system: angiogenesis in Matrigel™ plugs; assay: In vivo assay of daily dosages of NAALADase inhibitors on angiogenesis (Matrigel plug with bFGF); set-up: species or system C57B1 female mice; settings: 7 days post injection
Procedure: C57B1 female mice age 8 to 10 weeks (5/group) were injected subcutaneously with 0.5 mL of Matrigel™, 150 ng/mL of the angiogenic factor basic FGF (bFGF) and with 0, 0.47 μM or 4.7 μM […] (PMPA). The injected Matrigel™ rapidly formed a gel. […] Seven days post Matrigel™ injection, Matrigel™ plugs were excised and histology was performed.
The concentrations of the daily dosages as well as the coinciding initial Matrigel™ plug compositions are provided below in TABLE IV.

[4] = system: angiogenesis in the Matrigel™/bFGF gels; assay: In vivo assay of a continuous dosage of NAALADase inhibitors on angiogenesis (miniosmotic pumps, Matrigel/bFGF); set-up: species or system C57B1 female mice; settings: 13 days post injection
Procedure: Minipumps filled with vehicle (50 mM Hepes) were also implanted at this time. Twenty-four hours later, mice were each injected subcutaneously with 0.5 mL Matrigel™ and the 150 ng/mL of the angiogenic factor, basic FGF (bFGF). Thirteen days post Matrigel™/bFGF injection, the gels were recovered, fixed in formalin and sections were stained with Trichrome-Masson stain.

Sequence of NAALADase (Q04609 whole entry): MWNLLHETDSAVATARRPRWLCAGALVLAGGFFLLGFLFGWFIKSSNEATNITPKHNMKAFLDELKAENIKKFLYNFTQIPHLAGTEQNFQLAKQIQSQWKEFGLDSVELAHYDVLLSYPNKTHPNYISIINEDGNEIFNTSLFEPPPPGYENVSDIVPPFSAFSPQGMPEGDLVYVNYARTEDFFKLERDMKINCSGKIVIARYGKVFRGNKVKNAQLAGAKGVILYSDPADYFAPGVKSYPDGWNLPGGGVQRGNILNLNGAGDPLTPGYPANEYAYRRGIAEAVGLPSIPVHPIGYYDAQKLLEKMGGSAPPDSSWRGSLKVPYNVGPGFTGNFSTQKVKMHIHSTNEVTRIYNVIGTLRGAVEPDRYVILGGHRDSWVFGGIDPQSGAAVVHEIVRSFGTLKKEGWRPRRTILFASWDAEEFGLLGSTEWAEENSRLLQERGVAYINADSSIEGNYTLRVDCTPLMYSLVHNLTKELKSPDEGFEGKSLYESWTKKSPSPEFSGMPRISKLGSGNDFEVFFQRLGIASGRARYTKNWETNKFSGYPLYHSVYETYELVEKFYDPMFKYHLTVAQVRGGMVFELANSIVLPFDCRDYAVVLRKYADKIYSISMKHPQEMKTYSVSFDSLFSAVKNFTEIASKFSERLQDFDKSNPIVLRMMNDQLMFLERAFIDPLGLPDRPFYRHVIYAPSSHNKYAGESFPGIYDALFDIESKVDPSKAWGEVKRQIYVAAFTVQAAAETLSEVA

Structure (SMILES) | Ki [1] [nM] | further results
O=C(O)CCC(CP(=O)(O)Cc1ccccc1)C(=O)O (stereo not drawn) | 34.1 | 
O=C(O)CCC(CP(=O)(O)c1ccccc1)C(=O)O (stereo not drawn) | 35.9 | 
O=C(O)CCC(CP(=O)(O)Cc1c(F)c(F)c(F)c(F)c1F)C(=O)O (stereo not drawn) | 22.7 | 
O=C(O)CCC(CP(=O)(O)Cc1cccc(C(F)(F)F)c1)C(=O)O (stereo not drawn) | 22.5 | 
O=C(O)CCC(CP(=O)(O)C(NCc1ccccc1)c1ccccc1)C(=O)O (stereo not drawn) | 313 | 
O=C(O)CCC(CP(=O)(O)CNCc1ccccc1)C(=O)O (stereo not drawn) | 51.8 | 
O=C(O)CCC(CP(=O)(O)CN1C(=O)c2ccccc2C1=O)C(=O)O (stereo not drawn) | 34.5 | 
COc1ccc(NCP(=O)(O)CC(CCC(=O)O)C(=O)O)cc1 (stereo not drawn) | 2.5 | 
Cc1ccc(NCP(=O)(O)CC(CCC(=O)O)C(=O)O)cc1 (stereo not drawn) | 5.2 | 
O=C(O)CCC(CP(=O)(O)CNC(=O)Nc1ccccc1)C(=O)O (stereo not drawn) | 75 | 
O=C(O)CCC(CP(=O)(O)O)C(=O)O (stereo not drawn) [2-(phosphonomethyl)pentanedioic acid] |  | Survival Rate After 5 days (%) ([2]; dose 1 mg/kg): 100%; Survival Rate After 5 days (%) ([2]; dose 5 mg/kg): 100%; Survival Rate After 5 days (%) ([2]; dose 10 mg/kg): 100%; Survival Rate After 5 days (%) ([2]; dose 30 mg/kg): 100%; Survival Rate After 5 days (%) ([2]; dose 100 mg/kg): 100%; Survival Rate After 5 days (%) ([2]; dose 300 mg/kg): 100%; Survival Rate After 5 days (%) ([2]; dose 500 mg/kg): 66.7%; Toxicity to mice (in words) ([2]; doses 1 to 500 mg/kg): non-toxic to mice; NAALADase inhibiting activity (in words) [1]: high NAALADase inhibiting activity; Angiogenic response in Matrigel™ plugs (histology) ([3]; 3 mg/kg daily subcutaneous injection, 0.47 μM in Matrigel): decreased neovasculature or angiogenesis; Angiogenic response in Matrigel™ plugs (histology) ([3]; 3 mg/kg daily subcutaneous injection, 0.47 μM in Matrigel, listed as PMPA): decrease in blood vessels or angiogenesis; Angiogenic response in Matrigel™ plugs (histology) ([3]; 30 mg/kg daily subcutaneous injection, 4.7 μM in Matrigel): decreased neovasculature or angiogenesis; Angiogenic response in Matrigel™ plugs (histology) ([3]; 30 mg/kg daily subcutaneous injection, 4.7 μM in Matrigel, listed as PMPA): decrease in blood vessels or angiogenesis; Angiogenic response in Matrigel™/bFGF gels ([4]; 1 μg/day continuous by minipump): strong angiogenic response; Angiogenic response in Matrigel™/bFGF gels ([4]; 10 μg/day continuous by minipump): significantly decreased angiogenesis; Angiogenic response in Matrigel™/bFGF gels ([4]; 100 μg/day continuous by minipump): significantly decreased angiogenesis
O=C(O)CC(CP(=O)(O)O)C(=O)O (stereo not drawn) [2-(phosphonomethyl)succinic acid] |  | NAALADase inhibiting activity (in words) [1]: much lower NAALADase inhibiting activity

The next lines start with results.

Ki [1] [nM] | Structure (SMILES) | further results
114 | CCCCP(=O)(O)CC(CCC(=O)O)C(=O)O (stereo not drawn) | 
148 | O=C(O)CCC(CP(=O)(O)CCc1ccccc1)C(=O)O (stereo not drawn) | 
232 | O=C(O)CCC(CP(=O)(O)CCCc1ccccc1)C(=O)O (stereo not drawn) | 
12.7 | O=C(O)CCC(CP(=O)(O)CC(CCC(=O)OCc1ccccc1)C(=O)OCc1ccccc1)C(=O)O (stereo not drawn) | 
0.57 | O=C(O)CCC(CP(=O)(O)CC(CCC(=O)O)C(=O)O)C(=O)O (stereo not drawn) | 
1.5 | CC(CP(=O)(O)CC(CCC(=O)O)C(=O)O)C(=O)O (stereo not drawn) | 
118 | CC(=O)NCP(=O)(O)CC(CCC(=O)O)C(=O)O (stereo not drawn) | 
1.89 ± 0.19 | O=C(O)CCC(CP(=O)(O)CCC(=O)O)C(=O)O (stereo not drawn) [2-[[(2-carboxyethyl)hydroxyphosphinyl]-methyl]pentanedioic acid] | NAALADase inhibiting activity (in words) [1]: lower NAALADase inhibiting activity
